The source of these data is paper PMC4467917 (ACS infectious diseases, 2015).

The target of series [1] is T1, xanthine oxidase (Mus musculus, UniProt Q00519). Put plainly: Effect of allopurinol predosing on PZA and POA exposure in CD-1 mice. Conditions: allopurinol pretreatment either 4 doses of 20 mg/kg or 1 dose of 40 mg/kg.
For series [2], the target named is T1, xanthine oxidase. Conditions: female, CD-1, mouse, in vivo, po, 40 mg/kg.
Series [3] is described as follows: Plasma pharmacokinetics of oral PZA or POA in naïve guinea pigs.
Series [4] can be described thus: in vivo. Conditions: BALB/c, mouse, po, 150 mg/kg.
Test in series [5]: not given
The source holds these as a separate data set.

The conditions of series [6]: C3HeB/FeJ, mouse, in vivo.
In series [7] the test system is M. tuberculosis H37Rv or H37Ra. Briefly: Susceptibility on solid media. Type of series: cell-based, Mycobacterium tuberculosis.
The subject of series [8] is M. tuberculosis strains H37Rv and H37Ra. Put plainly: In vitro growth inhibitory assay in liquid medium. Type of series: cell-based, Mycobacterium tuberculosis.
Series [9] in a line: Oral pharmacokinetics of POA in preclinical species. Conditions: single oral POA dose; mice, guinea pigs and rabbits. Type of series: in vivo.
Series [10] is described as follows: in vivo. Conditions: female, CD-1, mouse, plasma, po, 150 mg/kg.
The format of series [11] is in vivo, human. To be noted: for CmaxPZA: Korean subjects, PZA 22–30 mg/kg.
Series [12] in a line: Plasma pharmacokinetics of oral PZA or POA in naïve New Zealand white rabbits. Type of series: in vivo, rabbit.
For series [13] the following is noted: female, rabbit, in vivo, po, 250 mg/kg.
Test in series [14]: not given
The source holds these as a separate data set.

For series [15], the system named is acute intravenous infection. Conditions: administered at 2 to 5% in food; cited from earlier work.
Series [16] concerns xanthine oxidase. Put plainly: Effect of allopurinol predosing on PZA and POA exposure in NZW rabbits. Type of series: in vivo, rabbit. Conditions: for AUC: female, New Zealand white, rabbit, plasma, 40 mg/kg.
Series [17] in a line: Solubility of POA in aqueous media. Format: physicochemical.
Series [18] in a line: in vivo. To be noted: female, C3HeB/FeJ, mouse, plasma, po, 150 mg/kg.
Series [19] in a line: Plasma pharmacokinetics of PZA and POA metabolite in uninfected marmosets.
The conditions of series [20]: cited from earlier work.
The nature of series [21]: in vivo. To be noted: C3HeB/FeJ, mouse, po.
Series [22] can be described thus: in vivo. To be noted: female, New Zealand white (NZW), rabbit, po, 250 mg/kg.
Test in series [23]: not given
The source holds these as a separate data set.

The mark [24] stands for this setting: female, Hartley, guinea pig, in vivo, po, 300 mg/kg.
Setting [25] is: female, BALB/c, mouse, in vivo, po, 150 mg/kg.
Setting [26] is: both, human, plasma, oral, 1500 mg.
[27] abbreviates: over a 24 h period, 14 TB patients, 1500 mg PZA, from PK model.
Where [28] appears, read: both, human, plasma, po, 1500 mg.
The mark [29] stands for this setting: female, New Zealand white, rabbit, plasma, po.

Molecules are shown by their SMILES. Read-outs that look alike come from different tables or passages of the source.

T1 sequence (Q00519 whole entry): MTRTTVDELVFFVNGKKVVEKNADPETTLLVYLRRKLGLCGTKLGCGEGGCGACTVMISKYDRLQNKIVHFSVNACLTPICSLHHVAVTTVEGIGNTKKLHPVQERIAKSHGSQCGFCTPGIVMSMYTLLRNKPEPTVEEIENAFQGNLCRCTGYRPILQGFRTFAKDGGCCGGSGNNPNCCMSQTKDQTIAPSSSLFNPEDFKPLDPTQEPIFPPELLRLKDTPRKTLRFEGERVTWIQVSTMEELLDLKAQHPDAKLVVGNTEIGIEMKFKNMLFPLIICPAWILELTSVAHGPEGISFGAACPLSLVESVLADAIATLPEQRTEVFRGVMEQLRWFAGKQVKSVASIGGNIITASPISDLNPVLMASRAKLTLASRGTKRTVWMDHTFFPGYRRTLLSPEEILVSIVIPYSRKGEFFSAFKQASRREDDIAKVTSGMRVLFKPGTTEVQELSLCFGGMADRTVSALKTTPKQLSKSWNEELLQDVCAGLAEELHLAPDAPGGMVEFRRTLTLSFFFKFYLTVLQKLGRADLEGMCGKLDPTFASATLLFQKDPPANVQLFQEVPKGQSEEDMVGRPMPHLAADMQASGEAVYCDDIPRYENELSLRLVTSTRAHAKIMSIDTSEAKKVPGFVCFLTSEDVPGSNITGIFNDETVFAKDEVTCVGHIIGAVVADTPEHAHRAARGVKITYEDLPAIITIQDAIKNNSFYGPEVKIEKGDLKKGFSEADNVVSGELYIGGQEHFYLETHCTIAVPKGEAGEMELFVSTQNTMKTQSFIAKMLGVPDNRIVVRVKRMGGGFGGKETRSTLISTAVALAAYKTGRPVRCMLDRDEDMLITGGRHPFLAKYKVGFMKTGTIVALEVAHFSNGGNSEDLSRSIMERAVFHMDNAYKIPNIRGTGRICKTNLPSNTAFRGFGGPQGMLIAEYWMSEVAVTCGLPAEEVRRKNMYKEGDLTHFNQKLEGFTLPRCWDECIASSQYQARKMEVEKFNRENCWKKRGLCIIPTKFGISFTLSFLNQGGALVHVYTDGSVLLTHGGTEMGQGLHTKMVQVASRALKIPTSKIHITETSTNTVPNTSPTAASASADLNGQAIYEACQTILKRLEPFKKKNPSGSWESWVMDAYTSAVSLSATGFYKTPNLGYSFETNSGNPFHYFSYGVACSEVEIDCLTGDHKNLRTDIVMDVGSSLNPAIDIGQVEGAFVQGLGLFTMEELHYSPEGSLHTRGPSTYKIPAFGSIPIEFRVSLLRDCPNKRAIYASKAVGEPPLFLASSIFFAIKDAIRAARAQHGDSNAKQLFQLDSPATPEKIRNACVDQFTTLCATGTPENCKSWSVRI

For the compound `O=C(O)c1cnc(O)cn1` [5-hydroxy-POA, 5-hydroxypyrazinoate], the “change in 5-hydroxy-POA exposure” value on xanthine oxidase [1] was “concomitant decrease”.
`O=C(O)c1cnccn1` [POA, pyrazinoic acid]: the “concentrations at 24 h post PZA dosing” value was “below the limit of quantification”. Moreover, at xanthine oxidase [2], the “fold increase in POA exposure” value was determined as 12 fold. For the same compound, the tissue-to-plasma ratios (female, New Zealand White, rabbit, in vivo) is 0.2 and 0.5. For the same compound, the AUC in series [3] (setting [24]) amounted to 449 µg·h/mL. In addition, the CmaxPOA in series [3] (naïve guinea pigs, single oral POA dose 300 mg/kg, average (SD)) is given as 165 (74) µg/mL. The AUC in “in vivo [4]” (female) worked out at 287 µg·h/mL. In series [5] (setting [25]), the “AUCPOA met (POA metabolite derived from dosing of PZA)” value (“AUCPOA met” below) is 131 (13) µg·h/ml, the AUCPOA/AUCPZA ratio is recorded as 0.38 (0.02) and the CmaxPOA met is on record as 43 (10) µg/mL. Besides, the CmaxPOA in series [5] (naïve BalbC mice, single oral POA dose 150 mg/kg, average (SD)) is recorded as 155(33) µg/mL. Further, in series [6] (po), the “CLm/Fm, oral clearance of the POA metabolite” value is 2.18 (6) L/h/kg and the “Vm/Fm, oral volume of distribution of the POA metabolite” value was 0.47 (13) L/kg. In addition, in series [6] (po, 150 mg/kg), the “AUCPOA met” value was 76 (16) µg·h/ml, the AUCPOA/AUCPZA ratio was 0.18 (0.02) and the CmaxPOA met was 16(5) µg/mL. The “potency relative to PZA on agar plates” value in [7] was “twice as potent as PZA”. In [8] (pH 5.5, 5.8 and 6.5, H37Ra and H37Rv), the “potency relative to PZA in liquid medium” value is “consistently more potent than PZA”. In [8] (various pH and inocula), the “fold more potent than PZA in vitro” value is on record as 2- to 4 fold. Moreover, the oral bioavailability entry in series [9] is given as “orally bioavailable”. The same compound yielded an AUC in the series “in vivo [10]” of 136 µg·h/mL. Besides, the “POA/PZA exposure ratio in plasma” value in series [11] (active TB patients) is “approximately 0.2”. The clearance in series [11] (setting [26]) was 31.7 mL/min. Also, in [11] (setting [27]), the “POA/PZA exposure ratio (range)” value is recorded as 17–32% and the “median POA/PZA exposure ratio” value amounted to 19%. The AUC in series [12] (female, New Zealand white, rabbit, plasma, po, 200 mg/kg) stood at 2010 µg·h/mL. For the same compound, the CmaxPOA in series [12] (naïve rabbits, single oral POA dose 200 mg/kg, average (SD)) is listed as 244 (51) µg/mL. Moreover, in [13] (New Zealand white (NZW)), the “AUCPOA met” value was 504 (139) µg·h/ml and the CmaxPOA met is reported as 111 (27) µg/mL. The AUCPOA/AUCPZA ratio in [13] (New Zealand white) is recorded as 1.70 (0.21). Besides, the CmaxPOA in series [14] (naïve CD1 mice, single oral POA dose 150 mg/kg, average (SD)) is 102 (32) µg/mL. Moreover, the “efficacy in a mouse model of acute intravenous infection” value in series [15] is on record as “lack of POA efficacy”. Also, the “effect of allopurinol predosing on POA exposure” value with xanthine oxidase [16] (rabbits, allopurinol 3 doses of 40 mg/kg followed by oral PZA 150 mg/kg) was “no effect”. Moreover, in series [17], the “solubility in aqueous media” value is “poor solubility”.
Usually CL/F stands for the apparent clearance, not corrected for the fraction that reaches the circulation. As a reminder, the Vd/F is the volume of distribution divided by bioavailability. Consider `NC(=O)c1cnccn1` [PZA, pyrazinamide], for which the “concentrations at 24 h post PZA dosing” value is recorded as “below the limit of quantification”. Also, in the series “in vivo [18]”, the AUC came out at 580 µg·h/mL, the CL/F was 10.3 mL/min/kg, the Vd/F is 1.02 L/kg and the k el is 0.000169 s⁻¹. Also, the AUC in [19] (marmoset (Callithrix jacchus), in vivo, po, 125 mg/kg) was found to be 743 µg·h/mL. For the same compound, the “ka, absorption rate constant” value in series [19] (marmosets, PK model typical value (standard error)) is 0.81 (7) h^−1. In [19] (monkey, in vivo, po, 125 mg/kg), the CL/F was 3.83 mL/min/kg, the Vd/F worked out at 1.1 L/kg and the k el is 5.83e-05 s⁻¹. For the same compound, the “human-equivalent PZA dose” value in series [19] (naïve marmosets, calculated to achieve a target AUC of 450 mg·h/L) is listed as 100 mg/kg. The CmaxPZA in series [19] (naïve marmosets, single oral PZA dose 125 mg/kg, average (SD)) is reported as 80 (47) µg/mL. For the same compound, in series [3] (setting [24]), the AUC was determined as 342 µg·h/mL, the CL/F is 12.5 mL/min/kg, the Vd/F worked out at 2.54 L/kg and the k el was 8.06e-05 s⁻¹. In series [3] (guinea pigs, PK model typical value (standard error NA)), the “ka, absorption rate constant” value is recorded as 7.7 (NA) h^−1. In addition, in [3] (naïve guinea pigs, calculated to achieve a target AUC of 450 mg·h/L), the “human-equivalent PZA dose” value was 400 mg/kg. Further, the CmaxPZA in [3] (naïve guinea pigs, single oral PZA dose 300 mg/kg, average (SD)) was 179 (100) µg/mL. In addition, the ““normal” peak plasma concentrations” value in [20] (1 to 2 h postdose) is 20 to 60 µg/mL. Also, the “mean AUC” value in series [20] (TB patients receiving a standard daily dose of 1500 mg PZA) is given as 380 to 625 mg·h/L. For the same compound, the AUC in “in vivo [4]” was found to be 388 µg·h/mL. In “in vivo [4]” (female), the CL/F is 7.83 mL/min/kg, the Vd/F worked out at 0.78 L/kg and the k el was 0.000167 s⁻¹. For the same compound, in series [5] (BALB/c mice, PK model typical value (standard error)), the “ka, absorption rate constant” value was 18 (8) h^−1. Besides, in [5] (BALB/c, mouse, in vivo), the “human-equivalent PZA dose” value was 175 mg/kg. In addition, the CmaxPZA in series [5] (setting [25]) was 163 (38) µg/mL. Also, in series [6], the “human-equivalent PZA dose” value turned out to be 160 mg/kg and the “ka, absorption rate constant” value was 220 (1) h^−1. For the same compound, the CmaxPZA in series [6] (po, 150 mg/kg) is listed as 89 (20) µg/mL. In “in vivo [21]”, this compound had an apparent clearance (CL/F) of 6.33 mL/min/kg and a Vd/F of 1.85 L/kg. This compound also displayed an AUC in the series “in vivo [21]” (150 mg/kg) of 425 µg·h/mL. Further, the “susceptibility of H37Rv compared with H37Ra” value in series [8] (across the pH range) is listed as “less susceptible to PZA than H37Ra”. For the same compound, in the series “in vivo [10]”, the AUC stood at 210 µg·h/mL, the CL/F was 12.5 mL/min/kg, the Vd/F stood at 1.28 L/kg and the k el was 0.000161 s⁻¹. In addition, the CmaxPZA in [11] (single dose) stood at 43 µg/mL. In series [11] (steady state), this compound came in with a CmaxPZA of 59 µg/mL. Further, in series [11] (TB patients, PK model typical value (standard error)), the “ka, absorption rate constant” value was 0.72 (18) h^−1. In series [11] (setting [26]), the clearance is 28.3 mL/min and the k el is 1.58e-05 s⁻¹. The same compound yielded an AUC in series [11] (both, human, plasma, po) of 617 to 738 µg·h/mL. In series [11] (setting [28]), this compound showed a CL/F of 0.467 mL/min/kg and a Vd/F of 0.49 L/kg. Also, the AUC in “in vivo [22]” was 296 µg·h/mL. In [12] (setting [29]), this compound had an apparent clearance (CL/F) of 12.5 mL/min/kg, a Vd/F of 3.72 L/kg and a k el of 5.56e-05 s⁻¹. This compound came in with an AUC in series [12] (female, New Zealand white, rabbit, plasma, po, 300 mg/kg) of 457 µg·h/mL. Besides, the “human-equivalent PZA dose” value in [12] (naïve rabbits, calculated to achieve a target AUC of 450 mg·h/L) was 300 mg/kg. Moreover, the CmaxPZA in [12] (naïve rabbits, single oral PZA dose 300 mg/kg, average (SD)) is 82 (17) µg/mL. Also, in series [12] (rabbits, PK model typical value (standard error)), the “ka, absorption rate constant” value was 4.8 (2) h^−1. Moreover, the “ka, absorption rate constant” value in series [23] (C3HeB/FeJ mice, PK model typical value (standard error)) is given as 4.47 (21) h^−1. Further, the CmaxPZA in series [23] (naïve C3HeB/FeJ mice, single oral PZA dose 150 mg/kg, average (SD)) was 190 (24) µg/mL. Moreover, the CmaxPZA in [13] (New Zealand white (NZW)) was 90 (35) µg/mL. Further, the “ka, absorption rate constant” value in [14] (CD1 mice, PK model typical value (standard error)) is reported as 15 (11) h^−1. In series [14] (naïve CD1 mice, single oral PZA dose 150 mg/kg, average (SD)), the CmaxPZA is reported as 109 (11) µg/mL.
`Oc1ncnc2[nH]ncc12` [allopurinol] came in with an AUC with xanthine oxidase [16] of 8000 ng·h/mL.
Turning to `O=c1[nH]c(=O)c2c[nH]nc2[nH]1` [oxypurinol], in the series with xanthine oxidase [16], the AUC was 124000 ng·h/mL.
